Results as given in patent publication US20170190671A1, “BIS(ARYL)CATECHOL DERIVATIVES AS HERBICIDES” (E I DU PONT DE NEMOURS AND COMPANY, priority 2014, published 2017).

Legend:
Conditions in all cases: scale 0 to 100
wild oat (Avenafatua) = test: Test D preemergence; format: in vivo, Avena fatua
Excerpt: (§1) Seeds of plant species selected from bluegrass (annual bluegrass, Poa annua), blackgrass (Alopecurus myosuroides), canarygrass (Phalaris minor), chickweed (common chickweed, Stellaria media), cutleaf geranium (Geranium dissectum), galium (catchweed bedstraw, Galium aparine), downy bromegrass (Bromus tectorum), field poppy (Papaver rhoeas), field violet (Viola arvensis), green foxtail (Setaria viridis), deadnettle (henbit deadnettle, Lamium amplexicaule), Italian ryegrass (Lolium multiflorum), kochia (Kochia scoparia), lambsquarters (Chenopodium album), oilseed rape (Brassica napus), pigweed (Amaranthus retroflexus), chamomile (scentless chamomile, Matricaria inodora), Russian thistle (Salsola kali), speedwell (bird's-eye speedwell, Veronica persica), spring barley (Hordeum vulgare), spring wheat (Triticum aestivum), wild buckwheat (Polygonum convolvulus), wild mustard (Sinapis arvensis), wild oat (Avenafatua), wild radish (Raphanus raphanistrum), windgrass (Apera spica-venti), winter barley (Hordeum vulgare), and winter wheat (Triticum aestivum) were planted into a silt loam soil and treated preemergence with test chemicals formulated in a non-phytotoxic solvent mixture which included a surfactant.
(§2) At the same time, these species were planted in pots containing Redi-Earth® planting medium (Scotts Company, 14111 Scottslawn Road, Marysville, Ohio 43041) comprising spaghnum peat moss, vermiculite, wetting agent and starter nutrients and treated with postemergence applications of the test chemicals formulated in the same manner. Plants ranged in height from 2 to 18 cm (1- to 4-leaf stage). Treated plants and controls were maintained in a controlled growth environment for 14 to 21 days after which time all species were compared to controls and visually evaluated. Plant response ratings, summarized in Table D, are based on a scale of 0 to 100 where 0 is no effect and 100 is complete control. A dash (-) response means no test result.

[1] = system: chamomile (scentless chamomile, Matricaria inodora); test: Test D postemergence; format: in vivo
Excerpt: as §1, §2

[2] = system: field poppy (Papaver rhoeas); test: Test D postemergence; format: in vivo
Excerpt: as §1, §2

kochia (Kochia scoparia) = test: Test D postemergence; format: in vivo
Excerpt: as §1, §2

[3] = system: oilseed rape (Brassica napus); test: Test D postemergence; format: in vivo
Excerpt: as §1, §2

[4] = system: speedwell (bird's-eye speedwell, Veronica persica); test: Test D postemergence; format: in vivo
Excerpt: as §1, §2

[5] = system: spring barley (Hordeum vulgare); test: Test D postemergence; format: in vivo
Excerpt: as §1, §2

[6] = system: wild mustard (Sinapis arvensis); test: Test D postemergence; format: in vivo
Excerpt: as §1, §2

[7] = system: wild radish (Raphanus raphanistrum); test: Test D postemergence; format: in vivo
Excerpt: as §1, §2

[8] = system: winter wheat (Triticum aestivum); test: Test D postemergence; format: in vivo
Excerpt: as §1, §2

[9] = system: johnsongrass (Sorghum halepense); test: Test E preemergence; format: in vivo
Outline: (§3)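 Preemergence: seeds in silt loam treated with compound in non-phytotoxic solvent with surfactant. Postemergence: plants at 1- to 4-leaf stage (2–18 cm) in peat-based medium sprayed likewise. Greenhouse 14–21 days, then visual rating vs controls, 0 (no effect) to 100 (complete control).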

[10] = system: wild poinsettia (Euphorbia heterophylla); test: Test E preemergence; format: in vivo
Outline: as §3

## N#Cc1cccc(Oc2ncc(Cl)cn2)c1Oc1ncc(Cl)cn1 [Compound 3, 2,3-bis[(5-chloro-2-pyrimidinyl)oxy]benzonitrile]
Wild oat (Avenafatua); 16 g ai/ha
  Plant response rating, Oat, Wild: 0
Wild oat (Avenafatua); 31 g ai/ha
  Plant response rating, Oat, Wild: 0
Wild oat (Avenafatua); 62 g ai/ha
  Plant response rating, Oat, Wild: 0
Wild oat (Avenafatua); 125 g ai/ha
  Plant response rating, Oat, Wild: 50
[1]; 16 g ai/ha
  Plant response rating, Chamomile: 0
[1]; 31 g ai/ha
  Plant response rating, Chamomile: 0
[1]; 62 g ai/ha
  Plant response rating, Chamomile: 20
[1]; 125 g ai/ha
  Plant response rating, Chamomile: 35
[2]; 16 g ai/ha
  Plant response rating, Field Poppy: 35
[2]; 31 g ai/ha
  Plant response rating, Field Poppy: 40
[2]; 62 g ai/ha
  Plant response rating, Field Poppy: 55
[2]; 125 g ai/ha
  Plant response rating, Field Poppy: 70
Kochia (Kochia scoparia); 16 g ai/ha
  Plant response rating, Kochia: 85
Kochia (Kochia scoparia); 31 g ai/ha
  Plant response rating, Kochia: 100
Kochia (Kochia scoparia); 62 g ai/ha
  Plant response rating, Kochia: 100
Kochia (Kochia scoparia); 125 g ai/ha
  Plant response rating, Kochia: 100
[3]; 16 g ai/ha
  Plant response rating, Oilseed Rape: 40
[3]; 31 g ai/ha
  Plant response rating, Oilseed Rape: 55
[3]; 62 g ai/ha
  Plant response rating, Oilseed Rape: 60
[3]; 125 g ai/ha
  Plant response rating, Oilseed Rape: 90
[4]; 16 g ai/ha
  Plant response rating, Speedwell: 85
[4]; 31 g ai/ha
  Plant response rating, Speedwell: 85
[4]; 62 g ai/ha
  Plant response rating, Speedwell: 100
[4]; 125 g ai/ha
  Plant response rating, Speedwell: 100
[5]; 16 g ai/ha
  Plant response rating, Barley, Spring: 5
[5]; 31 g ai/ha
  Plant response rating, Barley, Spring: 10
[5]; 62 g ai/ha
  Plant response rating, Barley, Spring: 15
[5]; 125 g ai/ha
  Plant response rating, Barley, Spring: 20
[6]; 16 g ai/ha
  Plant response rating, Mustard, Wild: 45
[6]; 31 g ai/ha
  Plant response rating, Mustard, Wild: 60
[6]; 62 g ai/ha
  Plant response rating, Mustard, Wild: 65
[6]; 125 g ai/ha
  Plant response rating, Mustard, Wild: 85
[7]; 16 g ai/ha
  Plant response rating, Radish, Wild: 50
[7]; 31 g ai/ha
  Plant response rating, Radish, Wild: 60
[7]; 62 g ai/ha
  Plant response rating, Radish, Wild: 75
[7]; 125 g ai/ha
  Plant response rating, Radish, Wild: 85
[8]; 16 g ai/ha
  Plant response rating, Wheat, Winter: 0
[8]; 31 g ai/ha
  Plant response rating, Wheat, Winter: 10
[8]; 62 g ai/ha
  Plant response rating, Wheat, Winter: 10
[8]; 125 g ai/ha
  Plant response rating, Wheat, Winter: 15

## Clc1cnc(Oc2cccc(Br)c2Oc2ncc(Cl)cn2)nc1 [Compound 19, 2,2′-[[3-bromo-1,2-phenylene]bis(oxy)]bis[5-chloropyrimidine]]
[9]; 16 g ai/ha
  Plant response rating, Johnsongrass: 0
[9]; 31 g ai/ha
  Plant response rating, Johnsongrass: 0
[9]; 62 g ai/ha
  Plant response rating, Johnsongrass: 50
[9]; 125 g ai/ha
  Plant response rating, Johnsongrass: 100
[10]; 16 g ai/ha
  Plant response rating, Poinsettia, Wild: 0
[10]; 31 g ai/ha
  Plant response rating, Poinsettia, Wild: 0
[10]; 62 g ai/ha
  Plant response rating, Poinsettia, Wild: 15
[10]; 125 g ai/ha
  Plant response rating, Poinsettia, Wild: 70

## Fc1cccc(Oc2ncc(Cl)cn2)c1Oc1ncc(Cl)cn1 [Compound 21, 2,2′-[[3-fluoro-1,2-phenylene]bis(oxy)]bis[5-chloropyrimidine]]
[9]; 16 g ai/ha
  Plant response rating, Johnsongrass: 0
[9]; 31 g ai/ha
  Plant response rating, Johnsongrass: 30
[9]; 62 g ai/ha
  Plant response rating, Johnsongrass: 65
[9]; 125 g ai/ha
  Plant response rating, Johnsongrass: 100
[10]; 16 g ai/ha
  Plant response rating, Poinsettia, Wild: 0
[10]; 31 g ai/ha
  Plant response rating, Poinsettia, Wild: 10
[10]; 62 g ai/ha
  Plant response rating, Poinsettia, Wild: 50
[10]; 125 g ai/ha
  Plant response rating, Poinsettia, Wild: 60
